Results published in publication PMC11418212, “Characterization of four structurally diverse inhibitors of SUR2-containing KATP channels” (Channels, 2024).
Values joined by “and” are separate entries in the source; they are usually repeats but may differ in a detail not shown here. Equal values may be shown once.

Tests used:
Kir3.1/3.2 = target: T1, Kir3.1/3.2 (Homo sapiens, UniProt P48051+P48549); assay: Kir family selectivity thallium flux assay; assay type: cell-based
T1 construct: expressed in transfected cells
T1 sequence (P48549 1-501): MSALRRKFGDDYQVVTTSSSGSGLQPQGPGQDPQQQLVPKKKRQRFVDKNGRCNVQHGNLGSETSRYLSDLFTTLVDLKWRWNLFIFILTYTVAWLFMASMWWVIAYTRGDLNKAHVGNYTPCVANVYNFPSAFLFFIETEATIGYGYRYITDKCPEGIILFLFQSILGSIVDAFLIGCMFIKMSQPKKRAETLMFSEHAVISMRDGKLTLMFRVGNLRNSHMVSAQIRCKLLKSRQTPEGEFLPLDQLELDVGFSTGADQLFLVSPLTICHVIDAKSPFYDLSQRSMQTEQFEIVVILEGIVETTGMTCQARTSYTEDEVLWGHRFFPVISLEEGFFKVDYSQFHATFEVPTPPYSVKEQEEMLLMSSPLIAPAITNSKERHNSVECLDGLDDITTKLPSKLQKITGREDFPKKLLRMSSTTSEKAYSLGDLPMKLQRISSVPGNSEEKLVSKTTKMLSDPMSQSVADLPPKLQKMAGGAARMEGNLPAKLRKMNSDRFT
T1 sequence (P48051 1-423): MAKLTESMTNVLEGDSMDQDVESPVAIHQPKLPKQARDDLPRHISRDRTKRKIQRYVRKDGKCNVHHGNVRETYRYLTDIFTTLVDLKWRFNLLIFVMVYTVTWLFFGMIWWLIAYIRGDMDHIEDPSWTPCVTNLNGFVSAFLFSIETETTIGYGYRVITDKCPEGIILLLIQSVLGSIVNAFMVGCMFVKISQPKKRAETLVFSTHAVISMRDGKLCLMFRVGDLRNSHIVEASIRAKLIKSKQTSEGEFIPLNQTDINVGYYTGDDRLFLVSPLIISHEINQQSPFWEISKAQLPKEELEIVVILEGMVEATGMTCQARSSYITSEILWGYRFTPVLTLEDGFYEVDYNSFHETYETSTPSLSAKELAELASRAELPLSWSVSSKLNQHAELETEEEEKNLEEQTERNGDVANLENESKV
Experimental: (§1) Thallium flux assays were conducted using the established methods. Stably transfected T-REx-HEK-293 cells expressing Kir6.2/SUR1 or Kir6.1/SUR2B were cultured overnight in polyamine-coated plates (black-walled, clear-bottomed; BD, Bedford, MA) at a density of 20,000 cells in 20 µl per well of cell culture media. The expression of Kir6.2/SUR1 or Kir6.1/SUR2B channels was induced by treating cells with 1 µg/ml tetracycline overnight. The following day, cells were rinsed with an assay buffer (Hanks’ Balanced Salt Solution supplied with 20 mM HEPES), loaded with the thallium-sensor dye Brilliant Thallos-AM AM (Ion Bioscience, San Marcos, TX) for 1 h, and then washed again with assay buffer to remove unincorporated dye. The cell plate was subsequently placed in a Panoptic Kinetic Imaging Plate Reader (Wavefront Bioscience, Franklin, TN) and imaged at a frequency of 1 Hz using 482/35 nm (excitation) and 536/40 nm (emission) filter sets. Kir6.1/SUR2B channels were activated with 10 µM pinacidil, whereas Kir6.1/SUR1 was activated with 30 µM VU0071063 [34]. To activate KATP channels independent of activators with ATP-depletion method, cells were treated with a cocktail of metabolic inhibitors (2.5 mM sodium cyanide and 20 mM 2-deoxy glucose) for 25 min before imagine. Control and test compounds diluted freshly from DMSO stocks into assay buffer were added to wells for four minutes before adding 0.5 mM chloride-free thallium stimulus buffer (Ion Bioscience) to initiate thallium flux through the expressed KATP channels. Thallium flux was recorded from all 384-wells for 2 min before terminating the experiment. […] Selectivity assays against other Kir channels were performed as described previously.
(§2) To begin elucidating the binding site location of VU0212387, VU0543336, VU0605768, and VU0544086, we evaluated the activity of the inhibitors against KATP channels composed of different Kir and SUR subunit combinations expressed in HEK293 cells. Specifically, the compounds were tested against Kir6.1/SUR1, Kir6.2/SUR1, Kir6.1/SUR2A, Kir6.2/SUR2A, Kir6.1/SUR2B, and Kir6.2/SUR2B at a dose of 3 µM. […] We expanded the selectivity analysis to include 10 other members of the Kir channel family.

Kir4.2 = target: T2, Kir4.2 (Homo sapiens, UniProt Q99712); assay: Kir family selectivity thallium flux assay; assay type: cell-based; conditions: for IC50: thallium flux; for inhibition at 30 µM: observed at 30 µM, read-out: Percent maximal inhibition of Kir4.2
T2 construct: expressed in transfected cells
T2 sequence (Q99712 1-375): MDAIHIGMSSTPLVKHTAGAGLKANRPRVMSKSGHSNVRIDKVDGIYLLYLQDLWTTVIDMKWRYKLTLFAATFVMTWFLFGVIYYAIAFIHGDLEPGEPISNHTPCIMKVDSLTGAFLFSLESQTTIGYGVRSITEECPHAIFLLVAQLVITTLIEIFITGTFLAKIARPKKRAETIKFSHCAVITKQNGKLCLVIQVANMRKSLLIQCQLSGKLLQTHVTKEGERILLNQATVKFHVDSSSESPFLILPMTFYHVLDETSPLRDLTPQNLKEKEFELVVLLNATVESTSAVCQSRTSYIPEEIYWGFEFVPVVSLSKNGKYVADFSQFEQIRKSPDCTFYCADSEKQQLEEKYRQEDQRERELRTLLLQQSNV
Experimental: as §1, §2

## O=C1c2oc3ccccc3c(=O)c2C(c2cccc(Br)c2)N1CCO (stereo not shown) [VU0605768, 1-(3-bromophenyl)-2-(2-hydroxyethyl)-1,2-dihydrochromeno[2,3-c]pyrrole-3,9-dione]
Kir3.1/3.2
  IC50: > 30 µM
Kir4.2
  IC50: > 30 µM

## O=C(NCc1cc(-c2ccncc2)n(C2CCCC2)n1)Nc1cccs1 [VU0544086, 1-((1-cyclopentyl-5-(pyridin-4-yl)-1 H-pyrazol-3-yl)methyl)-3-(thiophen-2-yl)urea]
Kir3.1/3.2
  IC50: > 30 µM
Kir4.2
  IC50: > 30 µM

## c1ccc2[nH]c(CSc3ncnc4c3oc3ccccc34)nc2c1 [VU0212387, 4-(((1 H-benzo[d]imidazol-2-yl)methyl)thio)benzofuro[3,2-d]pyrimidine]
Kir3.1/3.2
  IC50: > 30 µM
Kir4.2
  inhibition at 30 µM: 56%
  IC50: 17 µM and 17.1 µM

## O=C(NCC(O)(c1ccccc1)C(F)(F)F)c1ccc(OC(F)(F)F)cc1 (stereo not shown) [VU0543336, N-(3,3,3-trifluoro-2-hydroxy-2-phenylpropyl)-4-(trifluoromethoxy)benzamide]
Kir3.1/3.2
  IC50: > 30 µM
Kir4.2
  inhibition at 30 µM: 110%
  IC50: 12 µM and 11.8 µM
